This note sets out measurements from patent US12060347B2 (BRISTOL-MYERS SQUIBB COMPANY, priority 2016, dated 2024).

pIC50: −log10 of the molar value.

The assay addresses T1, human PAR4 (Homo sapiens, UniProt Q96RI0).
T1 construct: expressed in transfected cells; host or cells: HEK293 PAR4 Clone 1.2A (BMS Arctic ID 383940)
T1 sequence (Q96RI0 18-385): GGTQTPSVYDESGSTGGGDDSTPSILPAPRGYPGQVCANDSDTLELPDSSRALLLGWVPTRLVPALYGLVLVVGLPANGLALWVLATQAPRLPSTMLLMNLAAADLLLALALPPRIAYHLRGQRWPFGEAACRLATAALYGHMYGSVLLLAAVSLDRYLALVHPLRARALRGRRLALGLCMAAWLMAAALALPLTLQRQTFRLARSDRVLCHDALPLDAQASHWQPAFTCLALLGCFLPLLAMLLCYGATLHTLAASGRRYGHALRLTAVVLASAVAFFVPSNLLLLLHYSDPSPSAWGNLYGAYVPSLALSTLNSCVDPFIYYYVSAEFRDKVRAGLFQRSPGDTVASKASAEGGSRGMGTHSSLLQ
Description: PAR4 FLIPR assay: antagonism of agonist-peptide-induced calcium mobilization in PAR4-expressing HEK293 cells. The format is cell-based. Conditions: H-Ala-Phe(4-F)-[…]NH2-induced intracellular calcium mobilization, 11-point curves.
As for `COC(=O)c1cnc2c(-c3nc4c(C)cc(OCCNS(=O)(=O)c5ccc(F)cc5)cc4s3)cc(C)cc2n1` [Example 32, methyl 5-(6-(2-(4-fluorophenylsulfonamido)ethoxy)-4-methylbenzo[d]thiazol-2-yl)-7-methylquinoxaline-2-carboxylate], the pIC50 is 8.52.

Regarding `Cc1cc(-c2nc3c(C)cc(OCCNS(=O)(=O)c4ccc(F)cc4)cc3s2)c2ncc(OC3CC3)nc2c1` [Example 33, N-(2-((2-(2-cyclopropoxy-7-methylquinoxalin-5-yl)-4-methylbenzo[d]thiazol-6-yl)oxy)ethyl)-4-fluorobenzenesulfonamide], the negative-log IC50 (pIC50) is 6.92.

Take `Cc1cc(-c2nc3c(C)cc(OCCNS(=O)(=O)c4ccc(F)cc4)cc3s2)c2ncc(OCF)nc2c1` [Example 34, 4-fluoro-N-(2-((2-(2-(fluoromethoxy)-7-methylquinoxalin-5-yl)-4-methylbenzo[d]thiazol-6-yl)oxy)ethyl)benzenesulfonamide]: the pIC50 was 8.80.

For the compound `COc1cnc2c(-c3nc4c(C)cc(OCc5cnc(-c6ccccc6)[nH]5)cc4s3)cc(C)cc2n1` [Example 35, 2-(2-methoxy-7-methylquinoxalin-5-yl)-4-methyl-6-((2-phenyl-1H-imidazol-5-yl)methoxy)benzo[d]thiazole], the negative logarithm of the IC50 (pIC50) is 7.27.

In the case of `COc1cnc2c(-c3nc4c(C)cc(OCC(=O)NCc5ccccc5)cc4s3)cc(C)cc2n1` [Example 36, N-benzyl-2-((2-(2-methoxy-7-methylquinoxalin-5-yl)-4-methylbenzo[d]thiazol-6-yl)oxy)acetamide], the pIC50 is 8.11.

Turning to `COc1cnc2c(-c3cc4cccc(Cl)c4o3)cc(C)cc2n1` [Example 37, 5-(7-chlorobenzofuran-2-yl)-2-methoxy-7-methylquinoxaline], the pIC50 was 7.66.

Regarding `COc1cnc2c(-c3cc4cc(OCCOC(=O)Nc5ccnc(C)c5)cc(Cl)c4o3)cc(C)cc2n1` [Example 38, 2-((7-chloro-2-(2-methoxy-7-methylquinoxalin-5-yl)benzofuran-5-yl)oxy)ethyl (2-methylpyridin-4-yl)carbamate], the pIC50 was 8.68.

Regarding `COc1cnc2c(-c3cc4cc(OCCNS(=O)(=O)c5ccccc5)cc(Cl)c4o3)cc(C)cc2n1` [Example 39, N-(2-((7-chloro-2-(2-methoxy-7-methylquinoxalin-5-yl)benzofuran-5-yl)oxy)ethyl)benzenesulfonamide], the pIC50 is 8.00.

As to `Cc1cc(-c2cc3ccccc3s2)c2ncc(OC(F)F)nc2c1` [Example 40, 5-(benzo[b]thiophen-2-yl)-2-(difluoromethoxy)-7-methylquinoxaline], the pIC50 is 7.44.

On to `COc1cccc2cc(-c3cc(C)cc4nc(OC(F)F)cnc34)oc12` [Example 41, 2-(difluoromethoxy)-5-(7-methoxybenzofuran-2-yl)-7-methylquinoxaline], for which the pIC50 was 6.40.

As for `COc1cccc2oc(-c3cc(C)cc4nc(OC(F)F)cnc34)cc12` [Example 42, 2-(difluoromethoxy)-5-(4-methoxybenzofuran-2-yl)-7-methylquinoxaline], the pIC50 was 8.28.

`COc1cnc2c(-c3cc4c(OCc5ccccc5)cccc4o3)cc(C)cc2n1` [Example 43, 5-(4-(benzyloxy)benzofuran-2-yl)-2-methoxy-7-methylquinoxaline]: the pIC50 is 6.77.

Consider `Cc1cc(-c2cc3cc(OCc4ccccc4)ccc3o2)c2ncc(OC(F)F)nc2c1` [Example 44, 5-(5-(benzyloxy)benzofuran-2-yl)-2-(difluoromethoxy)-7-methylquinoxaline], for which the negative logarithm of the IC50 (pIC50) was 6.66.

Consider `Cc1cc(-c2cn3ccccc3n2)c2ncc(OC(F)F)nc2c1` [Example 45, 2-(difluoromethoxy)-5-(imidazo[1,2-a]pyridin-2-yl)-7-methylquinoxaline], for which the pIC50 is 7.00.

Turning to `COC(=O)NCCOc1ccc2oc(-c3cc(C)cc4nc(OC(F)F)cnc34)cc2c1` [Example 46, methyl 2-(2-(2-(difluoromethoxy)-7-methylquinoxalin-5-yl)benzofuran-5-yloxy)ethylcarbamate], the negative logarithm of the IC50 (pIC50) is 7.77.
